Peptide text beside a SMILES is read from it. * marks the point of attachment. Cbz = O=C(OCc1ccccc1)*
Experiments:
Assay type in all cases: ADME, cell-based; call rule not given here
[1] = target: T1, Protein cereblon/Cytochrome P450 1B1 (Homo sapiens, UniProt Q16678+Q96SW2); test: PROTAC activity at CRBN/CYP1B1 in human A549/Taxol cells assessed as degradation by measuring fold change in remaining CYP1B1 level at 1 nM incubated for 24 hrs by Western blotting analysis (reference value: 1); conditions: 0.001 µM
[2] = target: T1, Protein cereblon/Cytochrome P450 1B1; test: PROTAC activity at CRBN/CYP1B1 in human A549/Taxol cells assessed as degradation by measuring fold change in remaining CYP1B1 level at 1000 nM incubated for 24 hrs by Western blotting analysis (reference value: 1); conditions: 1 µM
[3] = target: T2, von Hippel-Lindau disease tumor suppressor/Cytochrome P450 1B1 (Homo sapiens, UniProt Q16678+P40337); test: PROTAC activity at VHL/CYP1B1 in human A549/Taxol cells assessed as degradation by measuring fold change in remaining CYP1B1 level at 1 nM incubated for 24 hrs by Western blotting analysis (reference value: 1); conditions: 0.001 µM
[4] = target: T2, von Hippel-Lindau disease tumor suppressor/Cytochrome P450 1B1; test: PROTAC activity at VHL/CYP1B1 in human A549/Taxol cells assessed as degradation by measuring fold change in remaining CYP1B1 level at 1000 nM incubated for 24 hrs by Western blotting analysis (reference value: 1); conditions: 1 µM
[5] = target: T2, von Hippel-Lindau disease tumor suppressor/Cytochrome P450 1B1; test: PROTAC activity at VHL/CYP1B1 in human A549/Taxol cells assessed as reduction in CYP1B1 level at 1 uM incubated for 24 hrs by Western blotting analysis

T2 sequence (Q16678 whole entry): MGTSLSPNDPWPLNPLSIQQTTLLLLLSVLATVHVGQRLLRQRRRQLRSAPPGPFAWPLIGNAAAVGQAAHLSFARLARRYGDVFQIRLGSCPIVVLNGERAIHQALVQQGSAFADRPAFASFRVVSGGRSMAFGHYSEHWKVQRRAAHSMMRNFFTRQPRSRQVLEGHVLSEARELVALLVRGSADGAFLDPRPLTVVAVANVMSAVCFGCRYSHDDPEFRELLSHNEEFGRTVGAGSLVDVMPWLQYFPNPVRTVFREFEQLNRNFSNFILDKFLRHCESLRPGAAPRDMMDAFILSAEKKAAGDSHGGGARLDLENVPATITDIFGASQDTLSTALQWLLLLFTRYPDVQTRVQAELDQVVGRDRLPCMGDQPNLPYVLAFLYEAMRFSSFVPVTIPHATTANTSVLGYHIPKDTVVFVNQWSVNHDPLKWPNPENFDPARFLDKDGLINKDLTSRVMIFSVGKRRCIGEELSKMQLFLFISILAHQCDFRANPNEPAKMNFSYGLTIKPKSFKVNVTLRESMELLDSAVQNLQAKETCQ
T2 sequence (P40337 whole entry): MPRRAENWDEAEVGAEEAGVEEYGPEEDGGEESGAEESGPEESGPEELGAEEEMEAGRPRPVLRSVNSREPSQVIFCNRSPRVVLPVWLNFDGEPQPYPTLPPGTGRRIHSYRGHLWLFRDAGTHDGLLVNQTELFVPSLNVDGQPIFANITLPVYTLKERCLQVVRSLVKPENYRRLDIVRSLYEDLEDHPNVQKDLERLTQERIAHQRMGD
T1 sequence (Q16678 whole entry): as the sequence (Q16678 whole entry) above
T1 sequence (Q96SW2 whole entry): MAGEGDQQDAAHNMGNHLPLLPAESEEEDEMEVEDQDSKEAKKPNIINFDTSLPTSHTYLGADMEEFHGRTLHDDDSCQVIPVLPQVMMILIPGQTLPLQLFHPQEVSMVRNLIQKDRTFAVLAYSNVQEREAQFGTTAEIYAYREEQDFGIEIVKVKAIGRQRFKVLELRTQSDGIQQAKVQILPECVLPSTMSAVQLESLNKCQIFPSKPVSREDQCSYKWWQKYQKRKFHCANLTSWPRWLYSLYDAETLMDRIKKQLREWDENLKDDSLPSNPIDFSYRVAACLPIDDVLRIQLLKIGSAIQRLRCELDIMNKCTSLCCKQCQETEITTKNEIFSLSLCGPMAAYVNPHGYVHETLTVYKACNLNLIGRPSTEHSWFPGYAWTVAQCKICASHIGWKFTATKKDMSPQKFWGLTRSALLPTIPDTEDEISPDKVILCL

Structure (SMILES) | fold change (FC) [1] | fold change (FC) [2] | fold change (FC) [3] | fold change (FC) [4] | Activity [5]
O=C1CCC(N2Cc3c(NC(=O)CCCCCCCC(=O)Nc4ccc(-c5csc(-c6csc(Nc7ccc(Cl)cc7)n6)n5)cc4)cccc3C2=O)C(=O)N1 (stereo unspecified) | 0.8 | 1 | – | – | –
O=C1CCC(N2C(=O)c3cccc(NC(=O)CN4CCN(CCCCCCCCCCCC(=O)Nc5ccc(-c6csc(-c7csc(Nc8ccc(Cl)cc8)n7)n6)cc5)CC4)c3C2=O)C(=O)N1 (stereo unspecified) | 1.5 | 1.1 | – | – | –
O=C1CCC(N2C(=O)c3cccc(NC(=O)CN4CCN(CCCCCCCCCC(=O)Nc5ccc(-c6csc(-c7csc(Nc8ccc(Cl)cc8)n7)n6)cc5)CC4)c3C2=O)C(=O)N1 (stereo unspecified) | 0.8 | 1.2 | – | – | –
O=C1CCC(N2Cc3c(NC(=O)CCCCCC(=O)Nc4ccc(-c5csc(-c6csc(Nc7ccc(Cl)cc7)n6)n5)cc4)cccc3C2=O)C(=O)N1 (stereo unspecified) | 1.1 | 1 | – | – | –
O=C1CCC(N2Cc3c(NC(=O)CCCCCCCCCCCCCC(=O)Nc4ccc(-c5csc(-c6csc(Nc7ccc(Cl)cc7)n6)n5)cc4)cccc3C2=O)C(=O)N1 (stereo unspecified) | 0.9 | 1 | – | – | –
O=C1CCC(N2C(=O)c3cccc(NC(=O)CN4CCN(CCCCCCCCCCC(=O)Nc5ccc(-c6csc(-c7csc(Nc8ccc(Cl)cc8)n7)n6)cc5)CC4)c3C2=O)C(=O)N1 (stereo unspecified) | 1.2 | 1.5 | – | – | –
Cc1ncsc1-c1ccc([C@H](C)NC(=O)[C@@H]2C[C@@H](O)CN2C(=O)[C@@H](NC(=O)CCCCCCCCCCOc2ccccc2-c2csc(-c3csc(Nc4ccc(Cl)cc4)n3)n2)C(C)(C)C)cc1 | – | – | 1.7 | 1.8 | –
O=C1CCC(N2C(=O)c3cccc(NC(=O)CN4CCN(CCCCCC(=O)Nc5ccc(-c6csc(-c7csc(Nc8ccc(Cl)cc8)n7)n6)cc5)CC4)c3C2=O)C(=O)N1 (stereo unspecified) | 1 | 1.2 | – | – | –
O=C1CCC(N2C(=O)c3cccc(NC(=O)CN4CCN(CCCCCCCCC(=O)Nc5ccc(-c6csc(-c7csc(Nc8ccc(Cl)cc8)n7)n6)cc5)CC4)c3C2=O)C(=O)N1 (stereo unspecified) | 1 | 1.6 | – | – | –
O=C1CCC(N2C(=O)c3cccc(NC(=O)CN4CCN(CCCCCCC(=O)Nc5ccc(-c6csc(-c7csc(Nc8ccc(Cl)cc8)n7)n6)cc5)CC4)c3C2=O)C(=O)N1 (stereo unspecified) | 0.8 | 0.9 | – | – | –
CC(C)C[C@@H](C=O)NC(=O)[C@H](CC(C)C)NC(=O)[C@H](CC(C)C)NC(=O)OCc1ccccc1 [MG-132] (Cbz-Leu-Leu-Leu-aldehyde) | – | – | – | – | Not Active

Source: ChEMBL document CHEMBL5523713, “Development of novel N-aryl-2,4-bithiazole-2-amine-based CYP1B1 degraders for reversing drug resistance” (Eur J Med Chem, 2024)
